“Also recorded” adds a separate entry of the source. Like-named read-outs stand apart in the source and are kept apart here. Where a SMILES comes first, the peptide text is derived from it. Bridges are numbered along the chain shown (N, C = ends).
What was measured:
[1] = biological target: T1, rat NPR-A (Rattus norvegicus, UniProt P18910); assay: cGMP ALPHAscreen, cGMP production in PC12 cells; assay type: cell-based; settings: PC12 cells, cGMP ALPHAscreen
T1 construct: endogenous in cells; host or cells: rat PC12 cells
T1 sequence (P18910 29-1057): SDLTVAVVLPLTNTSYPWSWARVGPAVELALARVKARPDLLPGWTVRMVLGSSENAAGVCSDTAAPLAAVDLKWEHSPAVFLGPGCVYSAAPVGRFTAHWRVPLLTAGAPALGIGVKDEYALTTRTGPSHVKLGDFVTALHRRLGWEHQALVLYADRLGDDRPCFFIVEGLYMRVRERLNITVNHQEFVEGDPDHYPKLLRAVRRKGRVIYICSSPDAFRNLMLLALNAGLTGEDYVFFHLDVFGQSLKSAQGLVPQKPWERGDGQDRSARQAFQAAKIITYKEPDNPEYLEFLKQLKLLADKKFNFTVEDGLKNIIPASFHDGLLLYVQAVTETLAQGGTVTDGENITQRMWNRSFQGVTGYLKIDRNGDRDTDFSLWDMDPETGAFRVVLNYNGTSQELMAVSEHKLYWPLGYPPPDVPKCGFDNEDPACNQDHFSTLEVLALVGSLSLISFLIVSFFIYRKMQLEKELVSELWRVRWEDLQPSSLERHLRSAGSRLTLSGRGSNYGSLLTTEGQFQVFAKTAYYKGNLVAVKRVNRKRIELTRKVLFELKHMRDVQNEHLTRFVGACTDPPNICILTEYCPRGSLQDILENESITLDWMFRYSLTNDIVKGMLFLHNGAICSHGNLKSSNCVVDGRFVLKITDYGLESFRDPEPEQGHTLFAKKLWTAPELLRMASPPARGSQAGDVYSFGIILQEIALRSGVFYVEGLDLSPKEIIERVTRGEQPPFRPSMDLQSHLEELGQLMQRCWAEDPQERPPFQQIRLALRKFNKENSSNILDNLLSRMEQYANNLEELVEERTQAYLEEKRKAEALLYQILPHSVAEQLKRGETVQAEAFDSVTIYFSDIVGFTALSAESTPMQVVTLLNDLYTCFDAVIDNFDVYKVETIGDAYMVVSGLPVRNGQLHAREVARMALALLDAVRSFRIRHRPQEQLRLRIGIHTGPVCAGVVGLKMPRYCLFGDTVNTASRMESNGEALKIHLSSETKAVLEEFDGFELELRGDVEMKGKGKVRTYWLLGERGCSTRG
Method: NP activity can be determined by the effectiveness of the peptide to elicit cGMP production through NPR-A. The cGMP ALPHAscreen evaluates the ability of peptides to stimulate cGMP production in cells through a non-radioactive, homogenous, proximity assay which encompasses […]. […] In order to evaluate the potency of TNPa-e at rNPR-A, TNPa-e were evaluated using the cGMP ALPHAscreen in rat PC12 cells.
(§1) Cells were cultured at 5% CO2 and 37 °C. HEK 293 cells were cultured in high glucose DMEM (Gibco, Carlsbad, CA, USA) supplemented with 10% FBS, and 1% penicillin/streptomycin. HEK 293 cells were seeded in media lacking penicillin/streptomycin 24 to 48 h pre-transfection. PC12 cells were cultured in high glucose DMEM (Gibco) supplemented with 10% FBS and 1% penicillin/streptomycin.
(§2) The cGMP ALPHAscreen was performed using the ALPHAscreen Protein A detection kit and the biotinylated cGMP supplement (Perkin Elmer, Waltham, MA, USA) with rabbit anti-cGMP polyclonal antibody (Biovision, Mountain View, CA, USA). Cells were detached from the flask and the resulting pellet was resuspended in stimulation buffer (HBSS supplemented with 0.1% w/v BSA and 1 mM IBMX at 37 °C). Cells were added to a white 384-well Optiplate (Perkin Elmer, Waltham, USA) to 30,000 cells per well for HEK 293 cells and 10,000 cells per well for PC12 cells. Cells were incubated with different concentrations of test peptides (concentration range of 1 × 10^−5 to 1 × 10^−11 M in stimulation buffer) at 37 °C for 30 min. Cells were lysed with lysis buffer (1 M HEPES, 0.3% Tween-20, 1% BSA in H2O, pH 7.4). Then 5 μL acceptor-bead mix was added to each well under subdued lighting conditions, followed by 5 μL of donor-bead mix. Plates were incubated for ~12 h, slowly shaking at room temperature. After incubation, the ALPHAscreen signal was measured using an EnVision plate reader (Perkin Elmer). The standard curve consisted of cGMP in a concentration range of 1 × 10^−6 to 1 × 10^−12 M. All data points were acquired in triplicate and were analyzed using GraphPad Prism 5.0 software (GraphPad Software, Inc., San Diego, CA, USA).

[2] = biological target: T2, human NPR-A (Homo sapiens, UniProt P16066); assay: cGMP ALPHAscreen, cGMP production in HEK 293 cells transiently overexpressing hNPR-A; assay type: cell-based; settings: HEK 293 cells overexpressing hNPR-A
T2 construct: expressed in transfected cells; host or cells: HEK 293 cells, transient, Lipofectamine 2000
T2 sequence (P16066 33-1061): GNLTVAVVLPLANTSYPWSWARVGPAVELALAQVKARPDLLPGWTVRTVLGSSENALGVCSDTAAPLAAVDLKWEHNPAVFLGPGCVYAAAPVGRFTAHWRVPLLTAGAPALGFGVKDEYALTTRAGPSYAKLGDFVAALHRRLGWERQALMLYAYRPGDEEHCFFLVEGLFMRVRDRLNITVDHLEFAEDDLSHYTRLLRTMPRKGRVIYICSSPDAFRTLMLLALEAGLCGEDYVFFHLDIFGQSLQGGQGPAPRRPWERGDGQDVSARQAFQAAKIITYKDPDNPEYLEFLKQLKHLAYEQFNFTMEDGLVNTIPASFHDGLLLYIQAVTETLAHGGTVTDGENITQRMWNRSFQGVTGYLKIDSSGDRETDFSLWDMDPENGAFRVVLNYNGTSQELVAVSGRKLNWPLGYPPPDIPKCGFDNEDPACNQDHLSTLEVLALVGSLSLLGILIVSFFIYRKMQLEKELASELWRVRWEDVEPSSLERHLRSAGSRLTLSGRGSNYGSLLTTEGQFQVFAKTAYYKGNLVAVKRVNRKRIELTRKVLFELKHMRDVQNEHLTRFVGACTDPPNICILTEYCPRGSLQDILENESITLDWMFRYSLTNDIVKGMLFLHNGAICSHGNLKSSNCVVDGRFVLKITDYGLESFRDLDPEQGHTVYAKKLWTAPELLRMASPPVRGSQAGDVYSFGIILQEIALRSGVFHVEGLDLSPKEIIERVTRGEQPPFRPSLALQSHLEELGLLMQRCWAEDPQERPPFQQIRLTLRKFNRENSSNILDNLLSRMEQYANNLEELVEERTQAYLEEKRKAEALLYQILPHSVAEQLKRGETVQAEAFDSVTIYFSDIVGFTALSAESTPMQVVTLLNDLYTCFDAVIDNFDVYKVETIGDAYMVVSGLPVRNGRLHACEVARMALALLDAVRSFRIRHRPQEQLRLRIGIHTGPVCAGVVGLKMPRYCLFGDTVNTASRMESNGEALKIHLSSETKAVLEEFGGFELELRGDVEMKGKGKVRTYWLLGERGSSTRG
Method: as §1
HEK 293 cells were transfected using the lipofectamine 2000 transfection protocol (Invitrogen). Cells (95% confluence) were transfected with 45% pcDNA3.1/hNPR-A, 45% pcDNA3.1, and 10% pEGFP-NI to the optimal DNA concentration specified in the protocol. The co-transfection with pEGFP-NI plasmid allowed the determination of the transfection efficiency. This was assessed by the estimation of the number of GFP-expressing cells using an Olympus IX70 inverted fluorescence microscope. Transfected cells were used for assay purposes within 24 h.
as §2

[3] = cited from earlier work
Source text: In humans, the NP system consists primarily of three main peptides, A-type or atrial natriuretic peptide (ANP), B-type or brain natriuretic peptide (BNP), and C-type natriuretic peptide (CNP). Distinct variations in the expression levels of each NP correlates strongly with normal physiological and disease conditions. Due to their importance in cardio-renal diseases these peptides have been extensively studied. Structurally, the NP family is characterized by a 17-residue ring structure with a highly conserved internal sequence and variable N- and C-terminal regions. W ...

[4] = test system: Neutral endopeptidase 24.11 (NEP); assay: 500 ng NEP (activity 400 pmol min^−1 μg^−1) in 100 mM Tris.HCl and 150 mM NaCl (pH 7.4); settings: 37 °C, up to 24 h

## CC[C@H](C)[C@H](NC(=O)[C@H](CCCCN)NC(=O)[C@H](CO)NC(=O)[C@H](CC(=O)O)NC(=O)[C@@H](N)CO)C(=O)NCC(=O)N[C@@H](CC(=O)O)C(=O)NCC(=O)N[C@H]1CSSC[C@@H](C(=O)N[C@@H](CC(N)=O)C(=O)N[C@@H](CCCNC(=N)N)C(=O)N2CCC[C@H]2C(=O)N[C@H](C(=O)N[C@@H](CCC(N)=O)C(=O)N[C@@H](CC(N)=O)C(=O)N[C@@H](CCCNC(=N)N)C(=O)N2CCC[C@H]2C(=O)N[C@@H](CCCCN)C(=O)N[C@@H](CCC(N)=O)C(=O)N[C@H](C(=O)N2CCC[C@H]2C(=O)NCC(=O)NCC(=O)N[C@@H](CO)C(=O)O)[C@@H](C)CC)C(C)C)NC(=O)CNC(=O)[C@H](CC(C)C)NC(=O)CNC(=O)[C@H](CO)NC(=O)[C@H](C(C)C)NC(=O)[C@H](CO)NC(=O)CNC(=O)[C@H]([C@@H](C)CC)NC(=O)[C@H](Cc2c[nH]cn2)NC(=O)[C@H](CC(=O)O)NC(=O)[C@H](CC(C)C)NC(=O)[C@@H]2CCCN2C(=O)[C@H](CC(C)C)NC(=O)CNC(=O)[C@H](Cc2ccccc2)NC1=O [TNPe] (H-SDSKIGDGCFGLPLDHIGSVSGLGCNRPVQNRPKQIPGGS-OH; disulfide 9-25)
[1]; 30 min at 37 °C, three to five separate experiments in triplicate, read-out: rNPR-A EC50 (95% CI), potency to stimulate cGMP production
  EC50: 1.8 µM
[1]; read-out: EC50 at rNPR-A
  EC50: > 1 µM
[2]; HEK293, read-out: cGMP production, % of the maximum response (compared with DNP, hANP, hBNP), at 10 μM
  Emax at 10 µM: < 20%
[2]; 30 min at 37 °C, cGMP ALPHAscreen, three separate experiments in triplicate, read-out: hNPR-A EC50 (95% CI), potency to stimulate cGMP production
  EC50: > 10 µM

## CC[C@H](C)[C@@H]1NC(=O)[C@H](CCCNC(=N)N)NC(=O)[C@H](CC(=O)O)NC(=O)[C@H](CCSC)NC(=O)[C@H](CCCNC(=N)N)NC(=O)CNC(=O)CNC(=O)[C@H](Cc2ccccc2)NC(=O)[C@@H](NC(=O)[C@H](CO)NC(=O)[C@H](CO)NC(=O)[C@H](CCCNC(=N)N)NC(=O)[C@H](CCCNC(=N)N)NC(=O)[C@H](CC(C)C)NC(=O)[C@@H](N)CO)CSSC[C@@H](C(=O)N[C@@H](CC(N)=O)C(=O)N[C@@H](CO)C(=O)N[C@@H](Cc2ccccc2)C(=O)N[C@@H](CCCNC(=N)N)C(=O)N[C@@H](Cc2ccc(O)cc2)C(=O)O)NC(=O)CNC(=O)[C@H](CC(C)C)NC(=O)CNC(=O)[C@H](CO)NC(=O)[C@H](CCC(N)=O)NC(=O)[C@H](C)NC(=O)CNC1=O [hANP, human atrial natriuretic peptide]
[3]
  half-life in plasma: 3 min

## CC[C@H](C)[C@@H]1NC(=O)[C@H](CCCNC(=N)N)NC(=O)[C@H](CC(=O)O)NC(=O)[C@H](CCSC)NC(=O)[C@H](CCCCN)NC(=O)[C@H](CCCNC(=N)N)NC(=O)CNC(=O)[C@H](Cc2ccccc2)NC(=O)[C@@H](NC(=O)CNC(=O)[C@H](CO)NC(=O)CNC(=O)[C@H](CCC(N)=O)NC(=O)[C@@H](NC(=O)[C@H](CCSC)NC(=O)[C@H](CCCCN)NC(=O)[C@@H]2CCCN2C(=O)[C@@H](N)CO)C(C)C)CSSC[C@@H](C(=O)N[C@@H](CCCCN)C(=O)N[C@H](C(=O)N[C@@H](CC(C)C)C(=O)N[C@@H](CCCN=C(N)N)C(=O)N[C@@H](CCCN=C(N)N)C(=O)N[C@@H](Cc2cnc[nH]2)C(=O)O)C(C)C)NC(=O)CNC(=O)[C@H](CC(C)C)NC(=O)CNC(=O)[C@H](CO)NC(=O)[C@H](CO)NC(=O)[C@H](CO)NC(=O)[C@H](CO)NC1=O [hBNP]
[3]
  half-life in plasma: 22 min

## SDSKIGNGCFGFPLDRIGSVSGLGCNRIMQNPPKKFSGE
[4]
  cleaved bond: Lys35-Phe36, major, after 24 h; also recorded: Cys9-Phe10, major, after 24 h; also recorded: Arg27-Ile28, major, after 24 h
